Values of other authors as cited in PMC3983144 (Bioconjugate chemistry, 2014).
Square brackets hold non-standard residues; d marks the D form. Nle = CCCC[C@H](N)C(=O)O

System: MC1R
Conditions: B16F1 melanoma cells

## Ac-[Nle]DH[dF]RWGK-NH2 [NAPamide]
  IC50: 270 pM
